Assay results published in patent publication US12514865B2, “Biomaterial-based antigen free vaccine and the use thereof” (President and Fellows of Harvard College, priority 2019, dated 2026).

What was measured:
[1] = tested on: 4T1 cells; test: In vitro immunogenic cell death assay; type: cell-based; details: 24 h
Experimental: 4T1 cells were incubated with different concentrations of Dox at 37° C. for 24 h. Cells without drug treatment were used as controls. Cells were washed with PBS for three times, collected, and stained with FITC-conjugated anti-CD47, Alex Fluor 647-conjugated anti-calreticulin, and fixable viability dye efluor780 for 20 min prior to FACS analyses.

[2] = Release of Dox-iRGD or Dox from pore-forming alginate gels; type: physicochemical; details: in vitro, DMEM 37 °C
[3] = tested on: 4T1 tumors; test: Tumor penetration study of Dox-iRGD; type: in vivo, Balb/c mice; details: released from peritumorally injected gels with GM-CSF, confocal imaging
Experimental: 4T1 cells (0.6 million) in HBSS buffer were subcutaneously injected into the right flank of Balb/c mice. After 5 days, pore-forming alginate gels loaded with GM-CSF (3 μg)+Dox-iRGD (50 μg in Dox-equivalent) or GM-CSF+Dox-iRDG or GM-CSF+Dox were injected next to the tumors. After 48 h, gels and tumors were harvested and frozen with O.C.T. compound, and sectioned with a thickness of 8 μm. To determine the tumor penetration of drugs, tissue sections were stained with DAPI for 10 min and imaged under a confocal microscope.

[4] = In vitro encapsulation and release of biomolecules from the cryogel vaccine; type: physicochemical
Experimental: To determine the incorporation efficiency and release kinetics of Cpg-odn, GM-CSF and antigen from cryogel vaccines, gels were incubated in lml of sterile PBS at 37° C. with shaking. Media was replaced periodically. Micro-BCA (Pierce Biotechnology) was used to quantify total protein content. GM-CSF and Cpg-odn released in the supernatant were detected by ELISA (Invitrogen) and OliGreen assay (Invitrogen), respectively. The amount of antigen was determined by subtracting total protein content from the amount of GM-CSF quantified by ELISA.

## COc1cccc2c1C(=O)c1c(O)c3c(c(O)c1C2=O)C[C@@](O)(C(=O)CO)C[C@@H]3O[C@H]1C[C@H](N)[C@H](O)[C@H](C)O1 [Dox, doxorubicin]
[1]
  expression of CD47: increased expression of the anti-phagocytic marker CD47
[1]; 0-100 nM
  cell-surface calreticulin: upregulated cell-surface calreticulin
[2]
  released from pore-forming alginate gel within 6 h: ~30%
  released from pore-forming alginate gel within 24 h: more than 60%
[3]
  tumor penetration / accumulation in tumor tissues: negligible accumulation

## GM-CSF: cytokine granulocyte-macrophage colony-stimulating factor (PeproTech)
[4]; from cryogel
  released over the first 5 days in vitro: 85%
[4]; in MA-PEG/MA-alginate vaccine cryogel
  encapsulation efficiency: 87%
[4]; in vitro, from cryogel
  burst release of the loaded amount: about 8%
